Values quoted from earlier work in patent US11701318B2, “Process of dyeing keratinous material comprising the use of an organosilicon compound, an effect pigment, and a film-forming polymer I” (Henkel AG & Co. KGaA, priority 2019, dated 2023).

Conditions: 25° C.

Compound | solubility in water | solubility in water (in words)
O=C([O-])c1c(Cl)c(Cl)c(Cl)c(Cl)c1-c1c2c(Br)cc(=O)c(Br)c-2oc2c(Br)c(O)cc(Br)c12.O=C([O-])c1c(Cl)c(Cl)c(Cl)c(Cl)c1-c1c2c(Br)cc(=O)c(Br)c-2oc2c(Br)c(O)cc(Br)c12.[Na+].[Na+] [Acid Red 92, disodium salt of 3,4,5,6-tetrachloro-2-(1,4,5,8-tetrabromo-6-hydroxy-3-oxoxanthen-9-yl)benzoic acid] | greater than 10 g/L | 
O=S(=O)([O-])c1ccc(N=Nc2c(O)ccc3ccccc23)cc1.[Na+] [Acid Orange 7, sodium salt of 4-[(2-hydroxy-1-naphthyl)azo]benzene sulphonate] | more than 7 g/L | 

Next, values leading:

solubility in water | solubility in water (in words) | Compound
 | highly soluble in water | O=C([O-])C1=NN(c2ccc(S(=O)(=O)[O-])cc2)C(=O)C1N=Nc1ccc(S(=O)(=O)[O-])cc1.[Na+].[Na+].[Na+] (stereo not drawn) [Acid Yellow 23, trisodium salt of 4,5-dihydro-5-oxo-1-(4-sulfophenyl)-4-((4-sulfophenyl)azo)-1H-pyrazole-3-carboxylic acid]
2.5 mg/mL |  | Nc1cc(S(=O)(=O)[O-])cc2cc(S(=O)(=O)[O-])c(N=Nc3ccccc3)c(O)c12.[Na+].[Na+] [Acid Red 33, disodium salt of 5-amino-4-hydroxy-3-(phenylazo)-naphthalene-2,7-disulphonate]
20 mg/mL |  | mixture of the sodium salts of mono- and disulfonic acids of 2-(2-quinolyl)-1H-indene-1,3(2H)-dione [Acid Yellow 3]
more than 20 % by weight |  | CCN(Cc1cccc(S(=O)(=O)[O-])c1)c1ccc(C(=C2C=CC(=[N+](CC)Cc3cccc(S(=O)(=O)[O-])c3)C=C2)c2ccccc2S(=O)(=O)[O-])cc1.[Na+].[Na+] [Acid Blue 9]
